Tests used:
hCRTH2 receptor [1] = molecular target: T1, hCRTH2 receptor (Homo sapiens (Human), UniProt Q9Y5Y4); assay: hCRTH2 receptor membranes radioligand (3H-PGD2) displacement assay; settings: 3H-PGD2 2.5 nM, HEK293-hCRTH2 membrane fragments, Binding-Buffer with 0.1% BSA
Description: (§1) First, recombinant HEK293-hCRTH2 cells were detached from culture plates into 5 ml buffer A/plate (Buffer A: 5 mM Tris, 1 mM MgCl2-6H2O pH=7.4) using a rubber policeman. Cells were then transferred into centrifugation tubes and centrifuged for 5 min at 400 g. The cell pellet was resuspended in the same buffer and tubes were frozen at −80° C. Cells were thawed and membrane fragments were generated by homogenization using a polytron homogenizer (30 seconds). The membrane fragments were then centrifuged at 3000 g for 20 minutes and resuspended in buffer C (Buffer C: 75 mM Tris, 25 mM MgCl2, 250 mM Saccharose pH 7.4). Aliquots of membrane fragments were stored at −20° C.
(§2) Binding assay was performed in a final assay volume of 250 μl. First, 25 μl of test compound, previously diluted in Binding-Buffer (Binding-Buffer: 50 mM Tris-Base, 100 mM NaCl, 1 mM EDTA, 0.1% BSA (protease free), 0.01% NaN3, 10 mM MnCl2 pH 7.0) was placed into each well. After addition of 75 μl Binding-Buffer, 50 μl of the radioligand ^3H-PGD2 (at 2.5 nM (220.000 dpm/well) from ANAWA ART0662) was added to each well. Binding assay was started by addition of 100 μl CRTH2 membrane fragments, reaching a final concentration of 20 μg/well. For non-specific binding, PGD2 was added to the reaction mixture to […] final concentration. This assay mix was incubated for 90 minutes at room temperature and then filtered through a GF/C filter 96-well plate which was pre-soaked for 3 hours in 0.5% polyethyleneimine (PEI). The filter-wells were washed three times with ice cold Binding-Buffer. Then, 40 μl of Microscint-40 (Packard) was added to each well and the retained radioactivity quantified in a Topcount (Packard).

hCRTH2 receptor [2] = molecular target: T1, hCRTH2 receptor; assay: Radioligand displacement assay in presence of human serum albumin (HSA); settings: 3H-PGD2 2.5 nM, HEK293-hCRTH2 membrane fragments, Binding-Buffer-HSA with 0.5% human serum albumin instead of 0.1% BSA
Description: as §1, §2
Radioligand displacement assay in presence of human serum albumin (HSA) was performed as described above, with following modifications. Binding-Buffer-HSA: Binding-buffer+0.5% Sigma Albumin from Human serum A1887 (instead of 0.1% BSA). A volume of 25 μl test compound, previously diluted in Binding-Buffer-HSA was placed into each well. After addition of 75 μl Binding-Buffer-HSA, 50 μl of ^3H-PGD2 (at 2.5 nM (220.000 dpm/well) from ANAWA ART0662) was added to each well. Remaining protocol was identical as described above.

T1 sequence (Q9Y5Y4 whole entry, the tested form may be a part): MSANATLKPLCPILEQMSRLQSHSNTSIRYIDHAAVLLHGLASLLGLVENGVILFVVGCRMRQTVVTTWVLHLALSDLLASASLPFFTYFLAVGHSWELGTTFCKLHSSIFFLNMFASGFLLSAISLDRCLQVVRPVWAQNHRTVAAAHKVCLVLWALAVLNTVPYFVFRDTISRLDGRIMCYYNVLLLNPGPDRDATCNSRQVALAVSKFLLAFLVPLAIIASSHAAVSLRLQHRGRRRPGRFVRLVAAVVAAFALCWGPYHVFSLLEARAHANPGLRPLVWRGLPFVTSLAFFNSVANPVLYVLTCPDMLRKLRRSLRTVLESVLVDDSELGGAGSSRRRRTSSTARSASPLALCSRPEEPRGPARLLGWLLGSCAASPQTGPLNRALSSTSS

IC50 (hCRTH2 receptor [1]) [nM]	IC50 (hCRTH2 receptor [2]) [nM]	SMILES
2	6	CC(C)CN(c1nc2cc(F)ccc2o1)C1CCc2c(CC(=O)O)c3ccc(Cl)cc3n2C1 (stereo not drawn) [Example 48, 2-(3-chloro-7-((5-fluorobenzo[d]oxazol-2-yl)(isobutyl)amino)-6,7,8,9-tetrahydropyrido[1,2-a]indol-10-yl)acetic acid]
3	6	O=C(O)Cc1c2n(c3cc(Cl)ccc13)CC(N(CC(F)F)c1nc3cc(F)ccc3o1)CC2 (stereo not drawn) [Example 44, 2-(3-chloro-7-((2,2-difluoroethyl)(5-fluorobenzo[d]oxazol-2-yl)amino)-6,7,8,9-tetrahydropyrido[1,2-a]indol-10-yl)acetic acid]
9	29	CN(c1ncc(F)cn1)C1CCc2c(CC(=O)O)c3ccccc3n2C1 (stereo not drawn) [Example 2, 2-(7-((5-fluoropyrimidin-2-yl)(methyl)amino)-6,7,8,9-tetrahydropyrido[1,2-a]indol-10-yl)acetic acid]
21	> 1000	CN(c1nc2cc(F)ccc2o1)C1CCc2c(CC(=O)O)c3cc(Cl)ccc3n2C1 (stereo not drawn) [Example 16, 2-(2-chloro-7-((5-fluorobenzo[d]oxazol-2-yl)(methyl)amino)-6,7,8,9-tetrahydropyrido[1,2-a]indol-10-yl)acetic acid]
11	20	O=C(O)Cc1c2n(c3cc(F)ccc13)CC(Nc1nc3cc(F)ccc3o1)CC2 (stereo not drawn) [Example 35, 2-(3-fluoro-7-((5-fluorobenzo[d]oxazol-2-yl)amino)-6,7,8,9-tetrahydropyrido[1,2-a]indol-10-yl)acetic acid]
65	465	O=C(O)Cc1c2n(c3cc(Cl)ccc13)CC(Nc1ncc(F)cn1)CC2 (stereo not drawn) [Example 36, 2-(3-chloro-7-((5-fluoropyrimidin-2-yl)amino)-6,7,8,9-tetrahydropyrido[1,2-a]indol-10-yl)acetic acid]
7	31	CN(c1ncc(Cl)cn1)C1CCc2c(CC(=O)O)c3ccc(Cl)cc3n2C1 (stereo not drawn) [Example 21, 2-(3-chloro-7-((5-chloropyrimidin-2-yl)(methyl)amino)-6,7,8,9-tetrahydropyrido[1,2-a]indol-10-yl)acetic acid]
16	24	CN(c1nc2cc(F)ccc2o1)C1CCc2c(CC(=O)O)c3ccccc3n2C1 (stereo not drawn) [Example 5, 2-(7-((5-fluorobenzo[d]oxazol-2-yl)(methyl)amino)-6,7,8,9-tetrahydropyrido[1,2-a]indol-10-yl)acetic acid]
3	5	CC(C)N(c1nc2cc(F)ccc2o1)C1CCc2c(CC(=O)O)c3ccc(Cl)cc3n2C1 (stereo not drawn) [Example 46, 2-(3-chloro-7-((5-fluorobenzo[d]oxazol-2-yl)(isopropyl)amino)-6,7,8,9-tetrahydropyrido[1,2-a]indol-10-yl)acetic acid]
2	246	Cc1cnc(N(C)C2CCc3c(CC(=O)O)c4ccc(Cl)cc4n3C2)nc1 (stereo not drawn) [Example 38, 2-(3-chloro-7-(methyl(5-methylpyrimidin-2-yl)amino)-6,7,8,9-tetrahydropyrido[1,2-a]indol-10-yl)acetic acid]
3	5	CN(c1ncc2ccccc2n1)C1CCc2c(CC(=O)O)c3ccc(Cl)cc3n2C1 (stereo not drawn) [Example 39, 2-(3-chloro-7-(methyl(quinazolin-2-yl)amino)-6,7,8,9-tetrahydropyrido[1,2-a]indol-10-yl)acetic acid]
4	46	CN(c1ncc(Cl)cn1)C1CCc2c(CC(=O)O)c3ccc(F)cc3n2C1 (stereo not drawn) [Example 17, 2-(7-((5-chloropyrimidin-2-yl)(methyl)amino)-3-fluoro-6,7,8,9-tetrahydropyrido[1,2-a]indol-10-yl)acetic acid]
5	4	CN(c1ncc2cc(F)ccc2n1)C1CCc2c(CC(=O)O)c3ccc(Cl)cc3n2C1 (stereo not drawn) [Example 40, 2-(3-chloro-7-((6-fluoroquinazolin-2-yl)(methyl)amino)-6,7,8,9-tetrahydropyrido[1,2-a]indol-10-yl)acetic acid]
9	38	CN(c1ncc(Cl)cn1)C1CCc2c(CC(=O)O)c3ccc(C(F)(F)F)cc3n2C1 (stereo not drawn) [Example 22, 2-(7-((5-chloropyrimidin-2-yl)(methyl)amino)-3-(trifluoromethyl)-6,7,8,9-tetrahydropyrido[1,2-a]indol-10-yl)acetic acid]
0.8	69	COCCN(c1ncc(F)cn1)C1CCc2c(CC(=O)O)c3ccc(Cl)cc3n2C1 (stereo not drawn) [Example 47, 2-(3-chloro-7-((5-fluoropyrimidin-2-yl)(2-methoxyethyl)amino)-6,7,8,9-tetrahydropyrido[1,2-a]indol-10-yl)acetic acid]
2	12	CN(c1cnc2cc(F)ccc2n1)C1CCc2c(CC(=O)O)c3ccc(Cl)cc3n2C1 (stereo not drawn) [Example 43, 2-(3-chloro-7-((6-fluoroquinoxalin-2-yl)(methyl)amino)-6,7,8,9-tetrahydropyrido[1,2-a]indol-10-yl)acetic acid]
12	123	CN(c1nc2cc(F)ccc2o1)C1CCc2c(CC(=O)O)c3cc(F)ccc3n2C1 (stereo not drawn) [Example 8, 2-(2-fluoro-7-((5-fluorobenzo[d]oxazol-2-yl)(methyl)amino)-6,7,8,9-tetrahydropyrido[1,2-a]indol-10-yl)acetic acid]
5	13	CN(c1nc2cc(F)ccc2o1)C1CCc2c(CC(=O)O)c3ccc(Cl)cc3n2C1 (stereo not drawn) [Example 31, 2-(3-chloro-7-((5-fluorobenzo[d]oxazol-2-yl)(methyl)amino)-6,7,8,9-tetrahydropyrido[1,2-a]indol-10-yl)acetic acid]
0.7	7	CN(c1nc2cc(F)ccc2o1)C1CCc2c(CC(=O)O)c3ccc(F)cc3n2C1 (stereo not drawn) [Example 10, 2-(3-fluoro-7-((5-fluorobenzo[d]oxazol-2-yl)(methyl)amino)-6,7,8,9-tetrahydropyrido[1,2-a]indol-10-yl)acetic acid]
1	3	CCN(c1ncc(F)cn1)C1CCc2c(CC(=O)O)c3ccc(Cl)cc3n2C1 (stereo not drawn) [Example 45, 2-(3-chloro-7-(ethyl(5-fluoropyrimidin-2-yl)amino)-6,7,8,9-tetrahydropyrido[1,2-a]indol-10-yl)acetic acid]
92	59	CN(c1nc2cc(F)ccc2s1)C1CCc2c(CC(=O)O)c3ccccc3n2C1 (stereo not drawn) [Example 6, 2-(7-((5-fluorobenzo[d]thiazol-2-yl)(methyl)amino)-6,7,8,9-tetrahydropyrido[1,2-a]indol-10-yl)acetic acid]
